Laboratory results as given in publication PMC12186257, “Serendipitous and Systematic Chemoproteomic Discovery of MBLAC2, HINT1, and NME1‑4 Inhibitors from Histone Deacetylase-Targeting Pharmacophores” (ACS Chemical Biology, 2025).

Target: T1, MERTK (Homo sapiens, UniProt Q12866)
T1 construct: endogenous in cells
T1 sequence (Q12866 21-999): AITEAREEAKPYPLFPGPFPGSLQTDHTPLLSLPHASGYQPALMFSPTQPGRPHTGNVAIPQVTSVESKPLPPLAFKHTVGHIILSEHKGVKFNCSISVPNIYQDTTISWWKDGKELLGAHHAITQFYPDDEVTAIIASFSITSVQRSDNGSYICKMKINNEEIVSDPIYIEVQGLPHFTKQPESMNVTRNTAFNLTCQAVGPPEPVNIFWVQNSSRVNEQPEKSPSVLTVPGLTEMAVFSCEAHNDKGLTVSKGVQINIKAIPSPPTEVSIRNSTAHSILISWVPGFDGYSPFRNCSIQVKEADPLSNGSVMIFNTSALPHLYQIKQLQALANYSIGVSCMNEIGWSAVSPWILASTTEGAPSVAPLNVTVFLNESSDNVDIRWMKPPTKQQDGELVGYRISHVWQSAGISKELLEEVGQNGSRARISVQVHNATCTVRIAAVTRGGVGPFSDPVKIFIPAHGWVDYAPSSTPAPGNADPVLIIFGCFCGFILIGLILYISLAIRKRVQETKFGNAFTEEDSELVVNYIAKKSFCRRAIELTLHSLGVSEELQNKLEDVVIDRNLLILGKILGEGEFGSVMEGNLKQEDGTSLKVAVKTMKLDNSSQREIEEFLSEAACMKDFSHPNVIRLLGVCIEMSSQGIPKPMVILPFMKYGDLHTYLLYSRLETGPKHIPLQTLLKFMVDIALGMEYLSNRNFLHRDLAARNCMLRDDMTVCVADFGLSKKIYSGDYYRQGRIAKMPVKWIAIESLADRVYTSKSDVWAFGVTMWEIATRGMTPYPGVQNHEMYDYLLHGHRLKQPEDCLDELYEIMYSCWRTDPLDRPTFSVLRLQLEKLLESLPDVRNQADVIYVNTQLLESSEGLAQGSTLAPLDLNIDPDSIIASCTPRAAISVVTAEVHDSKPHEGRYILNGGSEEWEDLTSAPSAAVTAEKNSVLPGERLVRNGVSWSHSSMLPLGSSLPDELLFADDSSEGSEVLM
Assay: Kinobead competition assay
Format: binding
Details: only kinase among >190
Description: The binding of KV-24 and KV-30 to the nucleotide-binding pocket raises the question of whether these compounds also target other nucleotide-binding proteins, such as kinases. To evaluate potential off-target effects, we performed Kinobead competition assays. This chemoproteomic approach is conceptually very similar to the one used here in that broad spectrum kinase inhibitors are immobilized on beads. […] PDE1C is a cAMP/cGMP nucleotide-binding protein that features two divalent metal cation cofactors. The hydroxamic acid moiety of KV-24 might chelate these metal cofactors, supporting the hypothesis that KV-24 binds the active site of PDE1C. […] With the help of our chemoproteomic platform, future structure–activity relationship (SAR) libraries based on the KV-24 and KV-30 scaffolds may be explored to improve selectivity toward either HINT1, kinase targets, or PDE1C. […]
LC-MS/MS. The different sample types were measured with different LC-MS/MS settings. MBLAC2 2-dose competition assays were measured with the Lumos1 setup, MBLAC2 9-dose competition assays were measured with the Lumos2 setup, and kinobeads assays were measured with the Eclipse setup.
Peptides were analyzed via LC–MS/MS on a Dionex Ultimate3000 nano HPLC coupled to either one of two Orbitrap Fusion Lumos mass spectrometers, or to an Orbitrap Eclipse mass spectrometer, operated via the Thermo Scientific Xcalibur software. […]

For `O=C(NO)c1ccc(-c2nc3ccccc3c3ccccc23)cc1` [KV-30], the “MERTK binding” value was “potential binding”.
